Earlier results as cited in article PMC10482267, “Safety, tolerability, pharmacokinetics, and pharmacodynamics of single and multiple doses of aficamten in healthy Chinese participants: a randomized, double-blind, placebo-controlled, phase 1 study” (Frontiers in Pharmacology, 2023).

Parameters: method as in Heitner et al., 2019; Olivotto et al., 2020
Conditions: humans; ref Heitner et al., 2019; Olivotto et al., 2020; cited from earlier work

CC(C)n1c(=O)cc(N[C@@H](C)c2ccccc2)[nH]c1=O [Mavacamten, mavacamten]
time to steady-state: approximately 6 weeks
